Assay: not given
Settings: not given

Compared with `CCCCNc1nc(CCC)nc(N2CCOCC2)n1`, `C=CCCNc1nc(CCC)nc(N2CCOCC2)n1` is lower in logP: 2.78 for the first, 2.47 for the second.

First: CCCc1nc(NCC(C)C)nc(N2CCOCC2)n1
Second: CCCc1nc(NCN(C)C)nc(N2CCOCC2)n1
The logP of the first is higher: 2.65 for the first, 1.94 for the second.

Compared with `CCCc1nc(NC)nc(N2CCOCC2)n1`, `CCCc1nc(N)nc(N2CCCCC2)n1` is higher in logP: 2.02 for the first, 2.43 for the second.

Assay: method code SF-HPLC, from DOI: 10.1016/s0223-5234(98)80011-1
Settings: pH 7.4

Going from `CCCc1nc(NCN2CCCC2=O)nc(N2CCOCC2)n1` to `CCCc1nc(NCC)nc(N2CCOCC2)n1`, the logD rises from 1.62 to 2.23.

First: OC1CN(c2nc(CC3CC3)nc(NC3CC3)n2)C1
Second: COC1CN(c2nc(CC3CC3)nc(NC3CC3)n2)C1
The logD of the first is lower: 1.71 for the first, 2.37 for the second.

Going from `CCCc1nc(NC(=O)c2ccccc2)nc(N2CCOCC2)n1` to `CCCc1nc(NCc2ccccc2OC)nc(N2CCOCC2)n1`, the logD rises from 2.33 to 3.59.

First: C1CCC(Cc2nc(NC3CC3)nc(N3CCOCC3)n2)C1
Second: C1CC(Cc2nc(NC3CC3)nc(N3CCOCC3)n2)C1
The logD of the first is higher: 3.6 for the first, 3.14 for the second.

First: O=S1(=O)CCN(c2nc(CC3CC3)nc(NC3CC3)n2)CC1
Second: O=S1CCN(c2nc(CC3CC3)nc(NC3CC3)n2)CC1
The logD of the first is higher: 1.76 for the first, 1.56 for the second.

`C1CC1Cc1nc(NC2CC2)nc(N2CC3CCC(C2)O3)n1` and `CCCCc1nc(NC2CC2)nc(N2CC3CCC(C2)O3)n1` are within 0.2 log units of each other in logD: 3.07 for the first, 3.02 for the second.

First: CCCc1nc(NC2CC2)nc(N2CCOCC2)n1
Second: CCCCc1nc(NC2CC2)nc(N2CCOCC2)n1
The logD of the first is lower: 2.11 for the first, 2.8 for the second.

`CCCCc1nc(NC2CC2)nc(N(CCO)CCO)n1` and `OCCN(CCO)c1nc(CC2CC2)nc(NC2CC2)n1` are within 0.2 log units of each other in logD: 1.76 for the first, 1.82 for the second.

Compared with `CCCc1nc(N)nc(N2CCOCC2)n1`, `CCCc1nc(NCCC(=O)N(C)C)nc(N2CCOCC2)n1` is lower in logD: 1.55 for the first, 0.67 for the second.

Going from `Cc1nc(NC2CC2)nc(N2CC3CCC(C2)O3)n1` to `CC(C)Cc1nc(NC2CC2)nc(N2CC3CCC(C2)O3)n1`, the logD rises from 1.84 to 3.34.

First: CCCCc1nc(NC2CC2)nc(N2CC(O)C2)n1
Second: C1CN(c2nc(CC3CC3)nc(NC3CC3)n2)CCO1
The logD of the first is lower: 1.61 for the first, 2.33 for the second.

In the case of `CCCc1nc(NCC)nc(N2CCCCC2)n1`, the logD is reported as 3.34.

— the SangsterLogP compilation
